Values joined by “and” are separate entries in the source; they are usually repeats but may differ in a detail not shown here. Equal entries are not always repeated.
Test system: CN0375-F725-PDC KRAS spheroid viability
Test: Anticancer human tumor CN0375-F725-PDC patient-derived colon carcinoma cell line growth inhibition [KRAS2]
Conditions: spheroids with HUVEC and MSC; for viability, T/C: stronger effect = lower value; active = viability on the fitted dose curve at most 10% of control; inactive = the rest
Summary of the method: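 KRAS-mutant tumor cells were grown as spheroids with HUVEC endothelial cells and human MSCs as stroma. Targeted agents were tested alone and with KRAS pathway inhibitors. Doses started at or near clinical Cmax, or 10 microM, descending half-log.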

[1] = compound alone, run of 08/26/2021
[2] = compound alone, run of 09/02/2021
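Note: spheroids exposed to agents for 7 days.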

CC(C)NCC(C(=O)N1CCN(c2ncnc3c2C(C)CC3O)CC1)c1ccc(Cl)cc1 (stereo not given)
> 10 µM: IC50 (curve of compound)
inactive: viability, T/C (compound 0.0316 µM) 103% [middle of 5 runs] | viability, T/C (compound 0.1 µM) 102% [middle of 5 runs] | viability, T/C (compound 0.316 µM) 96.5% [middle of 5 runs] | viability, T/C (compound 1 µM) 93.9% [middle of 5 runs] | viability, T/C (compound 3.16 µM) 91.8% [middle of 5 runs] | viability, T/C (compound 10 µM) 76.8% [middle of 5 runs]

CNCc1ccccc1-c1csc(C(C)Nc2nc(C)nc3cc(OC)c(OC)cc23)c1 (stereo not given)
1.33 µM [middle of 6 runs]: IC50 [2]
inactive: viability, T/C (compound 0.1 µM) 98.1% [middle of 17 runs] | viability, T/C (compound 0.316 µM) 92.8% [middle of 17 runs]
988 nM [middle of 5 runs]: IC50 [1]
active: viability, T/C (compound 10 µM) 0.33% [middle of 15 runs]

CC1OCC2(CCN(c3cnc(Sc4ccnc(N)c4Cl)c(N)n3)CC2)C1N (stereo not given)
> 10 µM: IC50 (compound alone, run of 08/19/2021) | IC50 [1] | IC50 [2] | IC50 (curve of compound)
inactive: viability, T/C (compound 0.0316 µM) 98.4% and 98.5% and 100% | viability, T/C (compound 0.1 µM) 94.9% [middle of 19 runs] | viability, T/C (compound 0.316 µM) 89.6% [middle of 19 runs] | viability, T/C (compound 3.16 µM) 78.7% [middle of 20 runs]

CC1(C)CCC(CN2CCN(c3ccc(C(=O)NS(=O)(=O)c4ccc(NCC5CCOCC5)c([N+](=O)[O-])c4)c(Oc4cnc5[nH]ccc5c4)c3)CC2)=C(c2ccc(Cl)cc2)C1 + COc1cc2nc(C)nc(NC(C)c3cc(N)cc(C(F)(F)F)c3)c2cc1OC1CCOC1
inactive: viability, T/C (second compound 0.1 µM, first compound 0.0316 µM) 99.9% | viability, T/C (second compound 0.1 µM, first compound 0.1 µM) 100% | viability, T/C (second compound 0.1 µM, first compound 0.316 µM) 92.4% | viability, T/C (second compound 0.1 µM, first compound 1 µM) 97.4% | viability, T/C (second compound 0.1 µM, first compound 3.16 µM) 66.2% | viability, T/C (second compound 0.1 µM, first compound 10 µM) 39.6% | viability, T/C (second compound 0.316 µM, first compound 0.0316 µM) 93.7% | viability, T/C (second compound 0.316 µM, first compound 0.1 µM) 100% | viability, T/C (second compound 0.316 µM, first compound 0.316 µM) 94.3% | viability, T/C (second compound 0.316 µM, first compound 1 µM) 93.7% | viability, T/C (second compound 0.316 µM, first compound 3.16 µM) 59.4% | viability, T/C (second compound 0.316 µM, first compound 10 µM) 40.6% | viability, T/C (second compound 1 µM, first compound 0.0316 µM) 93.1% | viability, T/C (second compound 1 µM, first compound 0.1 µM) 88% | viability, T/C (second compound 1 µM, first compound 0.316 µM) 94.6% | viability, T/C (second compound 1 µM, first compound 1 µM) 87.5% | viability, T/C (second compound 1 µM, first compound 3.16 µM) 45.6% | viability, T/C (second compound 1 µM, first compound 10 µM) 27.2% | viability, T/C (second compound 3.16 µM, first compound 0.0316 µM) 81.4% | viability, T/C (second compound 3.16 µM, first compound 0.1 µM) 85.4% | viability, T/C (second compound 3.16 µM, first compound 0.316 µM) 91.8% | viability, T/C (second compound 3.16 µM, first compound 1 µM) 74.6% | viability, T/C (second compound 3.16 µM, first compound 3.16 µM) 36% | viability, T/C (second compound 3.16 µM, first compound 10 µM) 28.6% | viability, T/C (second compound 10 µM, first compound 0.0316 µM) 11.2% | viability, T/C (second compound 10 µM, first compound 0.1 µM) 14.5% | viability, T/C (second compound 10 µM, first compound 0.316 µM) 19% | viability, T/C (second compound 10 µM, first compound 1 µM) 26.2% | viability, T/C (second compound 10 µM, first compound 3.16 µM) 27.2% | viability, T/C (second compound 10 µM, first compound 10 µM) 18.3%
5.61 µM: IC50 (curve of first compound, second compound 0.316 µM)
6.37 µM: IC50 (curve of first compound, second compound 0.1 µM)
< 0.0316 µM: IC50 (curve of first compound, second compound 10 µM)
2.8 µM: IC50 (curve of first compound, second compound 1 µM)
2.08 µM: IC50 (curve of first compound, second compound 3.16 µM)
